Data on 29 compounds can be found in patent US9914730B2, “Azaquinazoline inhibitors of Atypical protein Kinase C” (Ignyta, Inc., priority 2012, dated 2018).

This assay concerns the target T1, full-length human PKCι (Homo sapiens, UniProt P41743).
T1 construct: Recombinant, full-length human PKCι expressed in Sf21 insect cells is also commercially available; purchased; host or cells: Sf21 insect cells
T1 sequence (P41743 1-596): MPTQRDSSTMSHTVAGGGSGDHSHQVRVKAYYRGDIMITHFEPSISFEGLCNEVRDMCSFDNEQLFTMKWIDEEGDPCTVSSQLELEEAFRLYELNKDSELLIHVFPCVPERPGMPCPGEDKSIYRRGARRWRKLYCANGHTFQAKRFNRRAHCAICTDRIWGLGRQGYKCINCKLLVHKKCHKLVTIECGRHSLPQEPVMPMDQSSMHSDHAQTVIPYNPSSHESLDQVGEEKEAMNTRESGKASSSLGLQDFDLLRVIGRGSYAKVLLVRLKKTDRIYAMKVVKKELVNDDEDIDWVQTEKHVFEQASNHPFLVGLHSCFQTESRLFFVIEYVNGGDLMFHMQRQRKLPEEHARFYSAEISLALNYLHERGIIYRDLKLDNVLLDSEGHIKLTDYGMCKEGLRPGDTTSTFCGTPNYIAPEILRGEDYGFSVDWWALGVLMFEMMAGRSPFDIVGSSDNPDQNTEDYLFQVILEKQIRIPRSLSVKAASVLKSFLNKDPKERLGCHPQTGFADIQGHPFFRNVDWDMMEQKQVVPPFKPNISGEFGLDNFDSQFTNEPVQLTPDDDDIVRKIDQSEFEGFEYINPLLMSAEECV
Kind of assay: PKCι IC50 IMAP assay, full-length PKCι at 150 μM ATP. Particulars: read-out: IC50 in IMAP assay against full length PKCi at 150 μM ATP. The format is biochemical. The method in brief: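 Full-length hPKCι (Sf21) ~15 pM; 5FAM-peptide 100 nM; ATP 150 μM (5× KM^APP); tris pH7.5/MgCl2/EGTA/DTT/Triton, 4% DMSO; 60 min RT; IMAP stop, 2 h; FP 485/530 nm; IC50 from % inhibition curves.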

One may read the pIC50 as the negative decadic logarithm of the IC50, by convention in mol/L.

pIC50: −log10 of the molar value.

`C[C@@H]1CN(c2nc(-c3ccnc(Nc4nc(F)cc(F)c4F)c3)nc3cncc(C4CC4)c23)C[C@H](C)N1` [Example 2037, {4-[5-Cyclopropyl-4-((cis)-3,5-dimethyl-piperazin-1-yl)-pyrido[3,4-d]pyrimidin-2-yl]-pyridin-2-yl}-(3,4,6-trifluoro-pyridin-2-yl)-amine]: the pIC50 was above 7.00.
The figure for `CC1(C)C(=O)Nc2nccc(-c3nc(N4CCNCC4)c4c(C5CC5)cncc4n3)c21` [Example 2211, 4-(5-Cyclopropyl-4-piperazin-1-yl-pyrido[3,4-d]pyrimidin-2-yl)-3,3-dimethyl-1,3-dihydro-pyrrolo[2,3-b]pyridin-2-one] is 5.00 to 6.00; for `Nc1nccc2c(NC[C@@H](N)Cc3ccccc3)nc(N3CCOCC3)nc12` [Example 1013, N^4-((S)-2-Amino-3-phenyl-propyl)-2-morpholin-4-yl-pyrido[3,4-d]pyrimidine-4,8-diamine] it is 6.00 to 7.00.
On to `c1cnnc(Nc2cc(-c3nc(N4CCNCC4)c4c(C5CC5)cncc4n3)ccn2)c1` [Example 545, [4-(5-Cyclopropyl-4-piperazin-1-yl-pyrido[3,4-d]pyrimidin-2-yl)-pyridin-2-yl]-pyridazin-3-yl-amine], for which the pIC50 was above 7.00.
The figure for `CC(=O)Nc1cc(-c2nc(N3CCN[C@H](C(F)(F)F)C3)c3c(C4CC4)cncc3n2)ccn1` [Example 659, N-{4-[5-Cyclopropyl-4-((S)-3-trifluoromethyl-piperazin-1-yl)-pyrido[3,4-d]pyrimidin-2-yl]-pyridin-2-yl}-acetamide] is 6.00 to 7.00; for `CNc1nc(-c2ccnc(Nc3cccc(C4CCNCC4)c3)c2)nc2cncc(OC)c12` [Example 502, {5-Methoxy-2-[2-(3-piperidin-4-yl-phenylamino)-pyridin-4-yl]-pyrido[3,4-d]pyrimidin-4-yl}-methyl-amine] it is 5.00 to 6.00.
The figure for `N[C@H](CNc1nc(-c2ccncc2)nc2c(Nc3ncccn3)nccc12)Cc1ccccc1` [Example 124, 4-N-[(2S)-2-amino-3-phenylpropyl]-2-(pyridin-4-yl)-8-N-(pyrimidin-2-yl)pyrido[3,4-d]pyrimidine-4,8-diamine] is 5.00 to 6.00; for `COc1cncc2nc(-c3ccnc(Nc4ccncn4)c3)nc(N3CCNCC3)c12` [Example 211, [4-(5-Methoxy-4-piperazin-1-yl-pyrido[3,4-d]pyrimidin-2-yl)-pyridin-2-yl]-pyrimidin-4-yl-amine] it is above 7.00; for `COc1cncc2nc(-c3ccnc(NC(=O)[C@H](C)c4ccccc4)c3)nc(N3CCNCC3)c12` [Example 408, (R)-N-[4-(5-Methoxy-4-piperazin-1-yl-pyrido[3,4-d]pyrimidin-2-yl)-pyridin-2-yl]-2-phenyl-propionamide] it is 6.00 to 7.00.
Under `COc1cncc2nc(-c3ccnc(Nc4ccc(N5CCN(C)CC5)cc4C)c3)nc(N3CCNCC3)c12` [Example 413, [4-(5-Methoxy-4-piperazin-1-yl-pyrido[3,4-d]pyrimidin-2-yl)-pyridin-2-yl]-[2-methyl-4-(4-methyl-piperazin-1-yl)-phenyl]-amine] stands above 7.00; under `FC(F)(F)COc1ccc(Nc2cc(-c3nc(N4CCNCC4)c4c(C5CC5)cncc4n3)ccn2)cc1` [Example 2150, [4-(5-Cyclopropyl-4-piperazin-1-yl-pyrido[3,4-d]pyrimidin-2-yl)-pyridin-2-yl]-[4-(2,2,2-trifluoro-ethoxy)-phenyl]-amine], above 7.00.
For the compound `Fc1ccc(-c2cc3c(-c4nc(N5CCNCC5)c5c(C6CC6)cncc5n4)ccnc3[nH]2)cc1` [Example 1230, 5-Cyclopropyl-2-[2-(4-fluoro-phenyl)-1H-pyrrolo[2,3-b]pyridin-4-yl]-4-piperazin-1-yl-pyrido[3,4-d]pyrimidine], the pIC50 was above 7.00.
Under `O[C@H](CNc1nc(-c2ccncc2)nc2cnccc12)Cc1ccccc1` [Example 15, (2S)-1-phenyl-3-{[2-(pyridin-4-yl)pyrido[3,4-d]-pyrimidin-4-yl]-amino}propan-2-ol] stands 5.00 to 6.00; under `CC(C)NC(=O)C1CCN(c2nc(-c3ccncc3)nc3cnccc23)CC1` [Example 55, N-(propan-2-yl)-1-[2-(pyridin-4-yl)-pyrido[3,4-d]-pyrimidin-4-yl]-piperidine-4-carboxamide], 5.00 to 6.00.
The figure for `Fc1cc(F)c(-n2cc(Nc3cc(-c4nc(N5CCNCC5)c5c(C6CC6)cncc5n4)ccn3)cn2)c(F)c1` [Example 820, [4-(5-Cyclopropyl-4-piperazin-1-yl-pyrido[3,4-d]pyrimidin-2-yl)-pyridin-2-yl]-[1-(2,4,6-trifluoro-phenyl)-1H-pyrazol-4-yl]-amine] is above 7.00; for `c1cc(Nc2cc(-c3nc(N4CCNCC4)c4c(C5CC5)cncc4n3)ccn2)c2nonc2c1` [Example 2104, Benzo[1,2,5]oxadiazol-4-yl-[4-(5-cyclopropyl-4-piperazin-1-yl-pyrido[3,4-d]pyrimidin-2-yl)-pyridin-2-yl]-amine] it is above 7.00; for `Cc1cccc(-c2nccc3c(NC[C@@H](N)Cc4ccccc4)nc(-c4ccncc4)nc23)c1` [Example 119, N-[(2S)-2-amino-3-phenylpropyl]-8-(3-methyl-phenyl)-2-(pyridin-4-yl)-pyrido[3,4-d]-pyrimidin-4-amine] it is 5.00 to 6.00.
Consider `Cc1cc2c(-c3nc(N4CCN[C@@H](C5CC5)C4)c4c(C5CC5)cncc4n3)ccnc2[nH]1` [Example 1216, 5-Cyclopropyl-4-((S)-3-cyclopropyl-piperazin-1-yl)-2-(2-methyl-1H-pyrrolo[2,3-b]pyridin-4-yl)-pyrido[3,4-d]pyrimidine], for which the pIC50 is above 7.00.
With `c1cnc(Nc2cc(-c3nc(N[C@@H]4CCNC4)c4ccncc4n3)ccn2)cn1` [Example 243, {2-[2-(Pyrazin-2-ylamino)-pyridin-4-yl]-pyrido[3,4-d]pyrimidin-4-yl}-(R)-pyrrolidin-3-yl-amine], the negative logarithm of the IC50 (pIC50) is 5.00 to 6.00.
In the case of `CC1(C)CN(c2nc(-c3ccnc(Nc4nc(F)c(C5CC5)cc4F)c3)nc3cncc(C4CC4)c23)CCN1` [Example 2125, (5-Cyclopropyl-3,6-difluoro-pyridin-2-yl)-{4-[5-cyclopropyl-4-(3,3-dimethyl-piperazin-1-yl)-pyrido[3,4-d]pyrimidin-2-yl]-pyridin-2-yl}-amine], the pIC50 is above 7.00.
Take `CC(C)(Nc1cc(-c2nc(N3CCNCC3)c3c(C4CC4)cncc3n2)ccn1)C(F)(F)F` [Example 598, [4-(5-Cyclopropyl-4-piperazin-1-yl-pyrido[3,4-d]pyrimidin-2-yl)-pyridin-2-yl]-(2,2,2-trifluoro-1,1-dimethyl-ethyl)-amine]: the pIC50 is above 7.00.
For the compound `C[C@@H](N)CNc1nc(-c2ccncc2)nc2cnccc12` [Example 4, N-[(2R)-2-aminopropyl)-2-(pyridin-4-yl)pyrido[3,4-d]-pyrimidin-4-amine], the pIC50 was 5.00 to 6.00.
Under `CN1CCN(c2cccc(Nc3cc(-c4nc(N5CC[C@@H](O)C5)c5c(C6CC6)cncc5n4)ccn3)c2)CC1` [Example 738, (R)-1-(5-Cyclopropyl-2-{2-[3-(4-methyl-piperazin-1-yl)-phenylamino]-pyridin-4-yl}-pyrido[3,4-d]pyrimidin-4-yl)-pyrrolidin-3-ol] stands above 7.00.
The figure for `CN1CCN(c2nc(-c3ccnc(Nc4cccc(N5CCC(O)CC5)c4)c3)nc3cncc(C4CC4)c23)CC1` [Example 728, 1-(3-{4-[5-Cyclopropyl-4-(4-methyl-piperazin-1-yl)-pyrido[3,4-d]pyrimidin-2-yl]-pyridin-2-ylamino}-phenyl)-piperidin-4-ol] is 6.00 to 7.00.
Under `c1ccc(C2CN(c3nc(-c4ccncc4)nc4cnccc34)CCN2)cc1` (centres unmarked) [Example 69, 3-phenyl-1-[2-(pyridin-4-yl)-pyrido[3,4-d]-pyrimidin-4-yl]-piperazine] stands 4.40 to 5.00.
Consider `COc1cncc2nc(-c3ccncc3)nc(N3C[C@@H](C)N[C@@H](C)C3)c12` [Example 51, 1-[5-methoxy-2-(pyridin-4-yl)-pyrido[3,4-d]-pyrimidin-4-yl]-3,5-cis-dimethylpiperazine], for which the pIC50 is 5.00 to 6.00.
Under `c1ccc2oc(Nc3cc(-c4nc(N5CCNCC5)c5c(C6CC6)cncc5n4)ccn3)nc2c1` [Example 2044, Benzooxazol-2-yl-[4-(5-cyclopropyl-4-piperazin-1-yl-pyrido[3,4-d]pyrimidin-2-yl)-pyridin-2-yl]-amine] stands above 7.00.
Under `c1cc2c(N[C@@H]3CCNC3)nc(-c3ccnc(Nc4ccc(Cn5ccnc5)cc4)c3)nc2cn1` [Example 322, {2-[2-(4-Imidazol-1-ylmethyl-phenylamino)-pyridin-4-yl]-pyrido[3,4-d]pyrimidin-4-yl}-(R)-pyrrolidin-3-yl-amine] stands 6.00 to 7.00; under `Nc1ccccc1C(=O)Nc1cc(-c2nc(N[C@@H]3CCNC3)c3ccncc3n2)ccn1` [Example 303, 2-Amino-N-{4-[4-((R)-pyrrolidin-3-ylamino)-pyrido[3,4-d]pyrimidin-2-yl]-pyridin-2-yl}-benzamide], 6.00 to 7.00.
